The results in this text go back to paper PMC12632266, “A dual L-glucose/L-galactose catabolic pathway in Luteolibacter species strain LG18” (Journal of Bacteriology, 2025).

The test system of experiment [1] is T1, His6-LguH.
T1 construct: full-length ORF, N-terminal His6 (pET28a), E. coli BL21 Star (DE3)
The experiment is described as follows: coupled LguE/GAPDH, NADH formation at […] nm. The class given is biochemical, Luteolibacter sp. LG18. As to conditions: 1 mM MgCl2, 100 mM potassium phosphate pH 7.0, 25°C.

Experiment [2] concerns the target T2, His6-LguA (L-GDH) (Luteolibacter sp. LG18, UniProt Z9K5S2U0J3).
T2 construct: full-length ORF, N-terminal His6 (pET28a), E. coli BL21 Star (DE3); native N-terminus METRKLGNTGLDVSV
T2 sequence (Z9K5S2U0J3 21-349): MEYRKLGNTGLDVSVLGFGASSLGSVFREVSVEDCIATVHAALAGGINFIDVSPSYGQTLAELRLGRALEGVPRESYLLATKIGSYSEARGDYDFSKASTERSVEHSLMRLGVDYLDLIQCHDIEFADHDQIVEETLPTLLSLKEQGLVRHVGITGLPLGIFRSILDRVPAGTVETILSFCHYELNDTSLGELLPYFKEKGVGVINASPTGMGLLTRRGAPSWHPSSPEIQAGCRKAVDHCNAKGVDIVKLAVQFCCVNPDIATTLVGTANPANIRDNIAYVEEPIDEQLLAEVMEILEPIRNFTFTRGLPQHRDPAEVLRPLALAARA
The experiment can be described thus: NADP+ reduction at […] nm. As to conditions: 10 mM Tris-HCl pH 7.5, 25°C. The class given is biochemical.

Experiment [3] deals with T3, His6-LguD (L-GnDH).
T3 construct: full-length ORF, N-terminal His6 (pET28a), E. coli BL21 Star (DE3); native N-terminus MKTLVLREPG
The experiment is described as follows: NAD+ reduction at […] nm. As to conditions: 10 mM Tris-HCl pH 7.5, 25°C. The experiment is classed as biochemical, Luteolibacter sp. LG18.

Experiment [4] concerns T4, His6-LguE.
T4 construct: full-length ORF, N-terminal His6 (pET28a), E. coli BL21 Star (DE3)
The experiment can be described thus: coupled LDH, NADH oxidation (pyruvate production). The experiment is classed as biochemical, Luteolibacter sp. LG18. As to conditions: 100 mM potassium phosphate pH 7.0, 25°C. An excerpt:
coupled LDH, NADH oxidation (pyruvate production) on His6-LguE

The Km is the substrate concentration at which the rate is half of its maximum. As for `O=C(O)C(=O)C[C@H](O)[C@H](O)CO` [KDG], the Km in experiment [1] (10 mM PPi) turned out to be 198 ± 12 µM. Take `OC[C@@H]1OC(O)[C@@H](O)[C@H](O)[C@@H]1O` (stereo partly drawn) [L-galactose]: the Michaelis constant (Km) in experiment [2] (1 mM NADP+) worked out at 91.7 µM.

Consider `O=C(O)[C@@H](O)[C@H](O)[C@H](O)[C@@H](O)CO` [L-galactonate], for which the Km in experiment [3] (1 mM NAD+) was 2960 ± 230 µM. In the case of `O=P(O)(O)OP(=O)(O)O` [PPi], the Km in experiment [1] (5 mM KDG, phosphate donor) came to 306 ± 63 µM. As to `NC(=O)c1ccc[n+]([C@@H]2O[C@H](COP(=O)(O)OP(=O)(O)OC[C@H]3O[C@@H](n4cnc5c(N)ncnc54)[C@H](OP(=O)(O)O)[C@@H]3O)[C@@H](O)[C@H]2O)c1` [NADP^+], the Km in experiment [2] (100 mM L-glucose) turned out to be 79.3 µM.

Consider `NC(=O)c1ccc[n+]([C@@H]2O[C@H](COP(=O)(O)OP(=O)(O)OC[C@H]3O[C@@H](n4cnc5c(N)ncnc54)[C@H](O)[C@@H]3O)[C@@H](O)[C@H]2O)c1` [NAD^+], for which the Km in experiment [3] (20 mM L-gluconate) came to 450 ± 30 µM. With `O=C(O)C(=O)C[C@H](O)[C@H](O)COP(=O)(O)O` [KDPG], in experiment [4], the Km was 137 ± 10 µM. With `OC[C@@H]1OC(O)[C@@H](O)[C@H](O)[C@H]1O` (stereo partly drawn) [L-glucose], the Km in experiment [2] (1 mM NADP+) worked out at 7700 ± 490 µM. On to `Nc1ncnc2c1ncn2[C@@H]1O[C@H](COP(=O)(O)OP(=O)(O)OP(=O)(O)O)[C@@H](O)[C@H]1O` [ATP], for which the Km in experiment [1] (5 mM KDG, phosphate donor) is 55 ± 47 µM. As for `O=C(O)[C@@H](O)[C@H](O)[C@@H](O)[C@@H](O)CO` [L-gluconate], the Michaelis-Menten constant (Km) in experiment [3] (1 mM NAD+) is 4300 ± 340 µM.
